In patent publication US9658212B2, “Process for evaluating active agent(s) capable of preserving the functionality of epithelial stem cells” (L'OREAL, priority 2012, dated 2017):
Entries after “also recorded” stand apart in the source; their conditions may differ.

Legend:
[1] = system: gene encoding carbonic anhydrase IX; experiment: Transcriptomic analysis (RT-qPCR) of the carbonic anhydrase IX gene in hair bulbs cultured ex vivo; type: cell-based, human; conditions: whole hair bulbs, 4 hours incubation, normoxic conditions (21% dioxygen), compared with hypoxic conditions (3% dioxygen)
Source text: A second evaluation process may consist in carrying out a transcriptomic analysis of carbonic anhydrase IX, of which the expression of the corresponding gene is modified by a hypoxic signal, using the RT-qPCR technique, on keratin materials, for example on in vitro cultures of keratinocytes or hair bulbs isolated by microdissection and placed in culture ex vivo, under hypoxic conditions, and under normoxic conditions in the presence or absence of said active agent(s) to be tested, in order to study whether the active agent(s) is (are) capable of mimicking a hypoxic state.
This second process consists in carrying out a transcriptomic analysis of the gene encoding carbonic anhydrase IX, the expression of which is modified by a hypoxic signal, using the RT-qPCR technique, on hair bulbs isolated by microdissection at the level of the human scalp hypodermis and placed in culture ex vivo for 4 hours either under hypoxic conditions (3% dioxygen) or at 21% dioxygen, in the absence (control) or in the presence of diethyl pyridine-2,4 dicarboxylate.

[2] = system: keratinocytes from the outer sheath of human hair follicles; experiment: CFE (Colony-forming efficiency) test for keratinocytes (including epithelial stem cells); type: cell-based; conditions: 21% dioxygen, 50 to 500 μM, 10 days culture
Source text: It is possible to optionally add to these two evaluation processes a process aimed at establishing the impact of the active agent(s) capable of mimicking hypoxia on the quality of the epithelial stem cells. To do this, a CFE (Colony-forming efficiency) test can be carried out for keratinocytes (including epithelial stem cells), consisting in observing, respectively, under hypoxic conditions and under normoxic conditions in the presence or absence of active agent(s), the impact of the presence of the active agent(s) on the frequency of the cells capable of generating a cell clone within a given population, and also on the clonal morphology obtained, so as to thus establish their participation in the preservation of the functionality of the epithelial stem cells treated with the active agent(s). […]
Next, the cells of the outer epithelial sheath thus extracted from the hair follicles and dissected are subsequently seeded in a proportion of 1000 cells/culture dish under CFE conditions, on a layer of irradiated 3T3 fibroblasts. […] At the end of the clonogenic culture and after fixing (via 70% ethanol) and staining (incubation with eosin, rinsing and then incubation with BlueRAL 555) of the cell clones obtained, the morphology of the clones and of the cells making up these clones is analyzed.

HIF1-alpha protein = experiment: Western blotting of the level of expression/stabilization of the HIF1-alpha protein in outer sheath keratinocytes; type: cell-based, human; conditions: keratinocyte cultures under normoxic conditions (21% oxygen)
Source text: This third example consists in carrying out an analysis of the level of expression/stabilization of the HIF1-alpha protein using the Western blotting technique as a basis. To summarise, under normoxic conditions, the HIF1-alpha protein is hydroxylated on a proline residue (reaction catalyzed by a prolyl hydroxylase), ubiquitinylated and then degraded by the proteasome. Under hypoxic conditions, the HIF1-alpha protein is not hydroxylated and its expression level is maintained. To characterize the effect of diethyl pyridine-2,4-dicarboxylate on the level of expression/stabilization of HIF1-alpha, a protein extract was prepared on cultures of keratinocytes derived from the outer sheath of human hair follicles maintained and placed in culture under hypoxic conditions or under normoxic conditions, in the absence or presence of diethyl pyridine-2,4-dicarboxylate. […] In this regard, it may be stated that the effect of diethyl pyridine-2,4-dicarboxylate under normoxic conditions mimics the effect of hypoxic conditions on the expression/stabilization of the HIF1-alpha protein.

CCOC(=O)c1ccnc(C(=O)OCC)c1 [diethyl pyridine-2,4-dicarboxylate]
expression of carbonic anhydrase 9 (molecular profile) [1]: induces a molecular profile similar to that induced by hypoxia | number of clones ([2]; vs 21% dioxygen control conditions): does not significantly decrease | clonal morphology ([2]; vs untreated 21% dioxygen control): less diffuse and less dense than the controls; also recorded: generates clones similar to those obtained under hypoxic conditions | level of expression/stabilization of the HIF1-alpha protein (HIF1-alpha protein): induces an increase in the amount of protein detected
